Data: the supplement of paper PMC11061612

Key:
[1] = system: RMG-I (Ovarian Carcinoma); test: Bliss excess, mean over the matrix (fraction); higher = more synergy
Method in brief: (§1)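 After 24 hours at 37°C and 5% CO2 in 1536-well plates, cells in DMEM/F12 or RPMI plus 10% FBS received two-drug dose matrices for 72 hours. Viability came from CellTiter-Glo 2.0 luminescence and was scaled as inhibition, anchored at 0 by vehicle wells and at 1 by blank wells. Combination Emax is taken as the second-highest inhibition in the matrix, and Bliss excess as the observed combination effect less EA + EB − EA·EB, with EA and EB the single-agent effects.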

[2] = system: HTC-C3 (Thyroid Gland Carcinoma); test: as above
Method in brief: as §1

[3] = system: SJRH30 (Rhabdomyosarcoma); test: as above
Method in brief: as §1

[4] = system: RL95-2 (Endometrial Carcinoma); test: as above
Method in brief: as §1

[5] = system: AN3-CA (Endometrial Carcinoma); test: as above
Method in brief: as §1

[6] = system: NCI-H1563 (Lung Adenocarcinoma); test: as above
Method in brief: as §1

[7] = system: Caov-3 (Ovarian Carcinoma); test: as above
Method in brief: as §1

[8] = system: KYM-1 (Rhabdomyosarcoma); test: as above
Method in brief: as §1

[9] = system: Becker (Low Grade Glioma); test: as above
Method in brief: as §1

[10] = system: BALL-1 (B-Lymphoblastic Leukemia); test: as above
Method in brief: as §1

[11] = system: RT4 (Bladder Carcinoma); test: as above
Method in brief: as §1

[12] = system: NCI-H810 (Non-Small Cell Lung Carcinoma); test: as above
Method in brief: as §1

[13] = system: OVTOKO (Ovarian Carcinoma); test: as above
Method in brief: as §1

[14] = system: LOUCY (T-Lymphoblastic Leukemia); test: as above
Method in brief: as §1

[15] = system: SK-MM-2 (Plasma Cell Myeloma); test: as above
Method in brief: as §1

[16] = system: PC-14 (Lung Adenocarcinoma); test: as above
Method in brief: as §1

[17] = system: NCI-H196 (Small Cell Lung Carcinoma); test: as above
Method in brief: as §1

[18] = system: COLO-684 (Endometrial Carcinoma); test: as above
Method in brief: as §1

[19] = system: NCI-H1155 (Non-Small Cell Lung Carcinoma); test: combination Emax (second highest fraction inhibited in the dose matrix, 72 h); higher = more inhibition; extreme values may be limits of the assay
Method in brief: as §1

[20] = system: OVTOKO (Ovarian Carcinoma); test: as above
Method in brief: as §1
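Wherever Bliss excess, mean over the matrix is given: after 72 h of two-drug dosing.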

SMILES	Bliss excess [1]	Bliss excess [2]	Bliss excess [3]	Bliss excess [4]	Bliss excess [5]	Bliss excess [6]	Bliss excess [7]	Bliss excess [8]	Bliss excess [9]	Bliss excess [10]	Bliss excess [11]	Bliss excess [12]	Bliss excess [13]	Bliss excess [14]	Bliss excess [15]	Bliss excess [16]	Bliss excess [17]	Bliss excess [18]	combination Emax [19]	combination Emax [20]
CN(CCO)CC[C@H](CSc1ccccc1)Nc1ccc(S(=O)(=O)NC(=O)c2ccc(N3CCC([C@@H](O)c4ccccc4-c4ccc(Cl)cc4)CC3)cc2)cc1S(=O)(=O)C(F)(F)F [AZD4320] + C1CN(CCC1(C(=O)N[C@@H](CCO)C2=CC=C(C=C2)Cl)N)C3=NC=NC4=C3C=CN4 [Capivasertib] (first compound max 1 µM, 7x7, partner max 3 µM)	-0.0527	-0.0498	0.0085	-0.0192	-0.0186	-0.0423	-0.0309	-0.021	-0.0355	0.0012	-0.0716	-0.0595	-0.0381	0.0753	-0.0077	-0.03	-0.0297	-0.0157	0.904	0.413
COc1cccc(OCCCN)c1-c1cc(Nc2cnc(C#N)cn2)n[nH]1 [Prexasertib] + Cc1cc2ncnn2cc1Nc1ncc2c(n1)n(C1CCOCC1)c(=O)n2C [AZD7648] (first compound max 1 µM, 7x7, partner max 10 µM)	-0.0235	-0.018	-0.0311	-0.0263	-0.0393	-0.0146	-0.0376	-0.0078	-0.0081	0.0202	-0.0045	0.0108	-0.0079	-0.0021	-0.0512	-0.037	-0.0361	-0.0547	0.92	0.526
CC1(C)CCC(CN2CCN(c3ccc(C(=O)NS(=O)(=O)c4ccc(NCC5CCOCC5)c([N+](=O)[O-])c4)c(Oc4cnc5[nH]ccc5c4)c3)CC2)=C(c2ccc(Cl)cc2)C1 [Venetoclax] + COc1cc(Nc2ncc3c(n2)-c2ccc(Cl)cc2C(c2c(F)cccc2OC)=NC3)ccc1C(=O)O [Alisertib] (first compound max 1 µM, 7x7, partner max 10 µM)	-0.0513	-0.0285	0.0315	0.0892	0.0374	-0.0523	-0.119	0.0069	0.0786	0.0181	0.0354	0.0303	-0.0508	0.0646	0.0207	0.0366	-0.0371	-0.0153	0.809	0.484
CN(C)CCCOc1ccc(-c2ccc3ncc4c(c3c2)n(C2CCOCC2)c(=O)n4C)cn1 [AZD0156] + C=CCn1c(=O)c2cnc(Nc3ccc(N4CCN(C)CC4)cc3)nc2n1-c1cccc(C(C)(C)O)n1 [AZD1775] (first compound max 1 µM, partner max 1 µM)	-0.0545	-0.0187	-0.0467	-0.03	-0.0041	-0.0549	-0.0434	-0.0123	-0.0409	0.0118	-0.0136	-0.0519	-0.0255	-0.0123	0.0058	-0.0209	-0.0791	-0.0266	0.342	0.542
CCc1c2c(nc3ccc(O)cc13)-c1cc3c(c(=O)n1C2)COC(=O)[C@]3(O)CC [SN-38] + CN(C)CCCOc1ccc(-c2ccc3ncc4c(c3c2)n(C2CCOCC2)c(=O)n4C)cn1 [AZD0156] (first compound max 0.3 µM, 7x7, partner max 1 µM)	0.018	0.105	0.0722	0.0502	-0.0446	-0.0605	0.0175	0.0465	0.0387	0.0492	-0.0184	-0.0022	-0.0523	0.0406	0.0076	0.0407	-0.049	-0.0265	0.962	0.194
CC1(C)CCC(CN2CCN(c3ccc(C(=O)NS(=O)(=O)c4ccc(NCC5CCOCC5)c([N+](=O)[O-])c4)c(Oc4cnc5[nH]ccc5c4)c3)CC2)=C(c2ccc(Cl)cc2)C1 [Venetoclax] + C[C@@H](Nc1cc(F)cc(F)c1)c1cc(C(=O)N(C)C)cc2c(=O)cc(N3CCOCC3)oc12 [AZD8186] (first compound max 1 µM, 7x7, partner max 3 µM)	-0.0274	-0.0236	-0.0248	-0.0189	-0.0453	0.0389	-0.0548	-0.0138	0.0404	-0.0008	-0.0208	-0.0489	-0.0535	0.0146	0.024	-0.0169	-0.03	-0.261	0.422	0.521
CN(C)CCCOc1ccc(-c2ccc3ncc4c(c3c2)n(C2CCOCC2)c(=O)n4C)cn1 [AZD0156] + C[C@@H]1COCCN1C2=NC(=NC(=C2)C3(CC3)[S@](=N)(=O)C)C4=C5C=CNC5=NC=C4 [AZD6738] (first compound max 1 µM, 7x7, partner max 10 µM)	-0.0095	0.0193	0.0408	-0.0387	-0.0226	-0.0063	-0.026	-0.0102	-0.0248	0.0274	-0.0408	-0.0082	0.0039	0.0196	-0.0524	0.0043	-0.0414	-0.0496	0.748	0.471
